We go through four compounds from publication PMC4734333, “Structural characterisation of human galectin-4 N-terminal carbohydrate recognition domain in complex with glycerol, lactose, 3′-sulfo-lactose, and 2′-fucosyllactose” (Scientific Reports, 2016).

Holding throughout (format): binding
The target in assay [1] is T1, galectin-4N (human galectin-4 N-terminal CRD) (Homo sapiens, UniProt P56470).
T1 construct: gene LGALS4
T1 sequence (P56470 1-154): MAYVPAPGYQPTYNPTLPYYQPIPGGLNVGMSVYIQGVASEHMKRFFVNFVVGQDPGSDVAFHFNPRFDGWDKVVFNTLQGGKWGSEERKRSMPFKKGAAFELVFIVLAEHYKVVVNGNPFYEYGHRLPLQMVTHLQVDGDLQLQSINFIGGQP
The assay can be described thus: X-ray crystal structure ([…] Å) and competitive fluorescence anisotropy.

Assay [2] deals with T1, galectin-4N (human galectin-4 N-terminal CRD). The assay is described as above. The source holds these as a separate data set.
Assay [3] deals with T2, galectin-4N (human galectin-4 N-terminal CRD) (Homo sapiens, UniProt P56470).
T2 construct: gene LGALS4; N-terminal CRD (galectin-4N)
T2 sequence (P56470 1-154 limits assumed): T1 sequence (P56470 1-154)
The assay can be described thus: competitive fluorescence anisotropy.

For assay [4], the target named is T1, galectin-4N (human galectin-4 N-terminal CRD). Description: X-ray crystal structure ([…] Å) and competitive fluorescence anisotropy. This is another data set of the same source.

As to `C[C@@H]1O[C@@H](O[C@H]2[C@H](O[C@H]3[C@H](O)[C@@H](O)C(O)O[C@@H]3CO)O[C@H](CO)[C@H](O)[C@@H]2O)[C@@H](O)[C@H](O)[C@@H]1O` (stereo partly shown) [2′FL, 2′-fucosyllactose], binding in assay [1] was put at a Kd of 380 µM.

For the compound `O=S(=O)(O)O[C@H]1[C@@H](O)[C@@H](CO)O[C@@H](O[C@H]2[C@H](O)[C@@H](O)C(O)O[C@@H]2CO)[C@@H]1O` (stereo partly shown) [3′SuL, lactose-3′-sulfate], the Kd in assay [2] is 510 µM.

Consider `CC(=O)N[C@H]1[C@@H](O[C@H]2[C@@H](O)[C@@H](CO)O[C@@H](O[C@H]3[C@H](O)[C@@H](O)C(O)O[C@@H]3CO)[C@@H]2O[C@@H]2O[C@@H](C)[C@@H](O)[C@@H](O)[C@@H]2O)O[C@H](CO)[C@H](O)[C@@H]1O` (stereo partly shown) [A-tetrasaccharide], for which the Kd in assay [3] worked out at 164 µM.

Regarding `OC[C@H]1O[C@@H](O[C@H]2[C@H](O)[C@@H](O)C(O)O[C@@H]2CO)[C@H](O)[C@@H](O)[C@H]1O` (stereo partly shown) [lactose], the Kd in assay [4] was found to be 1300 µM.
